According to US20240099996A1, “METHODS FOR TREATING CANCER” (Radius Pharmaceuticals, Inc., priority 2015, published 2024):
Counter-ions that a name gives are not always drawn.

Experiment: Phase 1 dose escalation study in healthy post-menopausal women, treatment related AEs
Format: in vivo
Procedure: The subjects were 40-75 years old with BMI of 18.0-30 kg/m^2. Subjects having evidence of clinically relevant pathology, increased risk of stroke or of history venous thromboembolic events, or use of concomitant medication less than 14 days prior to admission to clinical research center (paracetamol allowed up to 3 days prior) were excluded. Dosing
The subjects were treated with placebo or at least one dose p.o., q.d. after a light breakfast for 7 days at dose levels of 200 mg, 500 mg, 750 mg and 1000 mg, respectively.

**Q.** What does the source list for CCNCCc1ccc(CN(CC)c2cc(OC)ccc2[C@@H]2CCc3cc(O)ccc3C2)cc1 [RAD1901, (6R)-6-(2-(N-(4-(2-(ethylamino)ethyl)benzyl)-N-ethylamino)-4-methoxyphenyl)-5,6,7,8-tetrahydronaphthalen-2-ol dihydrochloride]?
**A.** Nausea Gr2 (750 mg, N = 8): 1 (13) n(%); Nausea Gr3 (750 mg, N = 8): 0 n(%); Odynophagia Gr1 (750 mg, N = 8): 0 n(%); Odynophagia Gr2 (750 mg, N = 8): 0 n(%); Odynophagia Gr3 (750 mg, N = 8): 0 n(%); Oesophageal pain Gr1 (750 mg, N = 8): 1 (13) n(%); Oesophageal pain Gr2 (750 mg, N = 8): 0 n(%); Oesophageal pain Gr3 (750 mg, N = 8): 0 n(%); Salivary hypersecretion Gr1 (750 mg, N = 8): 2 (25) n(%); Salivary hypersecretion Gr2 (750 mg, N = 8): 0 n(%); Salivary hypersecretion Gr3 (750 mg, N = 8): 0 n(%); Sensation of a foreign body Gr1 (750 mg, N = 8): 0 n(%); Sensation of a foreign body Gr2 (750 mg, N = 8): 0 n(%); Sensation of a foreign body Gr3 (750 mg, N = 8): 0 n(%); Vomiting Gr1 (750 mg, N = 8): 0 n(%); Vomiting Gr2 (750 mg, N = 8): 2 (25) n(%); Vomiting Gr3 (750 mg, N = 8): 0 n(%); Abdominal discomfort Gr1 (1000 mg, N = 7): 0 n(%); Abdominal discomfort Gr2 (1000 mg, N = 7): 0 n(%); Abdominal discomfort Gr3 (1000 mg, N = 7): 0 n(%); Abdominal distension Gr1 (1000 mg, N = 7): 2 (29) n(%); Abdominal distension Gr2 (1000 mg, N = 7): 0 n(%); Abdominal distension Gr3 (1000 mg, N = 7): 0 n(%); Abdominal pain Gr1 (1000 mg, N = 7): 1 (14) n(%); Abdominal pain Gr2 (1000 mg, N = 7): 1 (14) n(%); Abdominal pain Gr3 (1000 mg, N = 7): 0 n(%); Diarrhoea Gr1 (1000 mg, N = 7): 3 (43) n(%); Diarrhoea Gr2 (1000 mg, N = 7): 1 (14) n(%); Diarrhoea Gr3 (1000 mg, N = 7): 0 n(%); Dizziness Gr1 (1000 mg, N = 7): 1 (14) n(%); Dizziness Gr2 (1000 mg, N = 7): 0 n(%); Dizziness Gr3 (1000 mg, N = 7): 0 n(%); Dyspepsia Gr1 (1000 mg, N = 7): 1 (14) n(%); Dyspepsia Gr2 (1000 mg, N = 7): 1 (14) n(%); Dyspepsia Gr3 (1000 mg, N = 7): 0 n(%); Dysphagia Gr1 (1000 mg, N = 7): 0 n(%); Dysphagia Gr2 (1000 mg, N = 7): 0 n(%); Dysphagia Gr3 (1000 mg, N = 7): 0 n(%); Flatulance Gr1 (1000 mg, N = 7): 0 n(%); Flatulance Gr2 (1000 mg, N = 7): 0 n(%); Flatulance Gr3 (1000 mg, N = 7): 0 n(%); Headache Gr1 (1000 mg, N = 7): 2 (29) n(%); Headache Gr2 (1000 mg, N = 7): 0 n(%); Headache Gr3 (1000 mg, N = 7): 0 n(%); Hiccups Gr1 (1000 mg, N = 7): 2 (29) n(%); Hiccups Gr2 (1000 mg, N = 7): 0 n(%); Hiccups Gr3 (1000 mg, N = 7): 0 n(%); Hot flush Gr1 (1000 mg, N = 7): 1 (14) n(%); Hot flush Gr2 (1000 mg, N = 7): 0 n(%); Hot flush Gr3 (1000 mg, N = 7): 0 n(%); Myalgia Gr1 (1000 mg, N = 7): 0 n(%); Myalgia Gr2 (1000 mg, N = 7): 0 n(%); Myalgia Gr3 (1000 mg, N = 7): 0 n(%); Nausea Gr1 (1000 mg, N = 7): 4 (57) n(%); Nausea Gr2 (1000 mg, N = 7): 2 (29) n(%); Nausea Gr3 (1000 mg, N = 7): 0 n(%); Odynophagia Gr1 (1000 mg, N = 7): 1 (14) n(%); Odynophagia Gr2 (1000 mg, N = 7): 1 (14) n(%); Odynophagia Gr3 (1000 mg, N = 7): 0 n(%); Oesophageal pain Gr1 (1000 mg, N = 7): 1 (14) n(%); Oesophageal pain Gr2 (1000 mg, N = 7): 1 (14) n(%); Oesophageal pain Gr3 (1000 mg, N = 7): 1 (14) n(%); Salivary hypersecretion Gr1 (1000 mg, N = 7): 2 (29) n(%); Salivary hypersecretion Gr2 (1000 mg, N = 7): 0 n(%); Salivary hypersecretion Gr3 (1000 mg, N = 7): 0 n(%); Sensation of a foreign body Gr1 (1000 mg, N = 7): 4 (57) n(%); Sensation of a foreign body Gr2 (1000 mg, N = 7): 0 n(%); Sensation of a foreign body Gr3 (1000 mg, N = 7): 0 n(%); Vomiting Gr1 (1000 mg, N = 7): 0 n(%); Vomiting Gr2 (1000 mg, N = 7): 3 (43) n(%); Vomiting Gr3 (1000 mg, N = 7): 0 n(%); dose limiting toxicities (DLT) (200-1000 mg p.o., q.d., 7 days): No dose limiting toxicites (DLT) were observed; maximum tolerated dose (MTD) (200-1000 mg p.o., q.d., 7 days): not established; Abdominal discomfort Gr1 (Total Active, N = 44): 4 n(%); Abdominal discomfort Gr2 (Total Active, N = 44): 1 (2) n(%); Abdominal discomfort Gr3 (Total Active, N = 44): 0 n(%); Abdominal distension Gr1 (Total Active, N = 44): 5 n(%); Abdominal distension Gr2 (Total Active, N = 44): 1 (2) n(%); Abdominal distension Gr3 (Total Active, N = 44): 0 n(%); Abdominal pain Gr1 (Total Active, N = 44): 7 n(%); Abdominal pain Gr2 (Total Active, N = 44): 3 (7) n(%); Abdominal pain Gr3 (Total Active, N = 44): 0 n(%); Diarrhoea Gr1 (Total Active, N = 44): 6 n(%); Diarrhoea Gr2 (Total Active, N = 44): 1 (2) n(%); Diarrhoea Gr3 (Total Active, N = 44): 0 n(%); Dizziness Gr1 (Total Active, N = 44): 5 n(%); Dizziness Gr2 (Total Active, N = 44): 0 n(%); Dizziness Gr3 (Total Active, N = 44): 0 n(%); Dyspepsia Gr1 (Total Active, N = 44): 13 n(%); Dyspepsia Gr2 (Total Active, N = 44): 3 (7) n(%); Dyspepsia Gr3 (Total Active, N = 44): 0 n(%); Dysphagia Gr1 (Total Active, N = 44): 4 n(%); Dysphagia Gr2 (Total Active, N = 44): 3 (7) n(%); Dysphagia Gr3 (Total Active, N = 44): 0 n(%); Flatulance Gr1 (Total Active, N = 44): 5 n(%); Flatulance Gr2 (Total Active, N = 44): 0 n(%); Flatulance Gr3 (Total Active, N = 44): 0 n(%); Headache Gr1 (Total Active, N = 44): 9 n(%); Headache Gr2 (Total Active, N = 44): 1 (2) n(%); Headache Gr3 (Total Active, N = 44): 0 n(%); Hiccups Gr1 (Total Active, N = 44): 9 n(%); Hiccups Gr2 (Total Active, N = 44): 0 n(%); Hiccups Gr3 (Total Active, N = 44): 0 n(%); Hot flush Gr1 (Total Active, N = 44): 11 n(%); Hot flush Gr2 (Total Active, N = 44): 0 n(%); Hot flush Gr3 (Total Active, N = 44): 0 n(%); Myalgia Gr1 (Total Active, N = 44): 3 n(%); Myalgia Gr2 (Total Active, N = 44): 2 (5) n(%); Myalgia Gr3 (Total Active, N = 44): 0 n(%); Nausea Gr1 (Total Active, N = 44): 14 n(%); Nausea Gr2 (Total Active, N = 44): 5 (11) n(%); Nausea Gr3 (Total Active, N = 44): 0 n(%); Odynophagia Gr1 (Total Active, N = 44): 4 n(%); Odynophagia Gr2 (Total Active, N = 44): 2 (5) n(%); Odynophagia Gr3 (Total Active, N = 44): 0 n(%); Oesophageal pain Gr1 (Total Active, N = 44): 3 n(%); Oesophageal pain Gr2 (Total Active, N = 44): 6 (14) n(%); Oesophageal pain Gr3 (Total Active, N = 44): 1 (2) n(%); Salivary hypersecretion Gr1 (Total Active, N = 44): 8 n(%); Salivary hypersecretion Gr2 (Total Active, N = 44): 0 n(%); Salivary hypersecretion Gr3 (Total Active, N = 44): 0 n(%); Sensation of a foreign body Gr1 (Total Active, N = 44): 7 n(%); Sensation of a foreign body Gr2 (Total Active, N = 44): 0 n(%); Sensation of a foreign body Gr3 (Total Active, N = 44): 0 n(%); Vomiting Gr1 (Total Active, N = 44): 3 n(%); Vomiting Gr2 (Total Active, N = 44): 10 (23) n(%); Vomiting Gr3 (Total Active, N = 44): 1 (2) n(%); Abdominal discomfort All (Total TEAE, N = 44): 5 n(%); Abdominal distension All (Total TEAE, N = 44): 6 n(%); Abdominal pain All (Total TEAE, N = 44): 10 n(%); Diarrhoea All (Total TEAE, N = 44): 7 n(%); Dizziness All (Total TEAE, N = 44): 5 n(%); Dyspepsia All (Total TEAE, N = 44): 16 n(%); Dysphagia All (Total TEAE, N = 44): 7 n(%); Flatulance All (Total TEAE, N = 44): 5 n(%); Headache All (Total TEAE, N = 44): 10 n(%); Hiccups All (Total TEAE, N = 44): 9 n(%); Hot flush All (Total TEAE, N = 44): 11 n(%); Myalgia All (Total TEAE, N = 44): 5 n(%); Nausea All (Total TEAE, N = 44): 19 n(%); Odynophagia All (Total TEAE, N = 44): 6 n(%); Oesophageal pain All (Total TEAE, N = 44): 10 n(%); Salivary hypersecretion All (Total TEAE, N = 44): 8 n(%); Sensation of a foreign body All (Total TEAE, N = 44): 7 n(%); Vomiting All (Total TEAE, N = 44): 14 n(%)
